Columns and labels:
[1] = tested on: E-cadherin expression in Caco-2 cells; assay: Western blot of E-cadherin expression, Caco-2 cells; assay type: cell-based
Procedure: HCT-8, HT-29, and HT-116 cells were grown in DMEM medium supplied with 10% fetal bovine serum (FBS) and 1% penicillin-streptomycin. Caco-2 cells were grown in DMEM medium supplied with 10% FBS, 1% non-essential amino acid NEAA), and 1% penicillin-streptomycin. Cells were cultured at 37 °C and 5% CO2. As cells reached confluency, they were detached using 0.25% Trypsin-EDTA.
For Western blot analyses, HCT-8 (n = 15), HCT-116 (n = 12), Caco-2 (n = 6), and HT-29 (n = 12) cells were seeded in 6-well plates at a density of 1 × 10^6 cells/well. Twenty-four hours after seeding, all cell lines were treated with 1 μM EntF* or a placebo solution. HCT-8 cells were also tested for responsiveness to 1 μM EntF* synthetic alanine-derived analogs. For antagonist activity analysis, HCT-8 cells were treated with 1 μM Nef-M1 or 1 μM EntF*A1 alone or in combination with 500 nM EntF*. After 24 h, cells were detached from the surface and lysed in RIPA buffer (Thermo Scientific). Protein concentration was determined using the modified Lowry protein assay kit (Thermo Scientific), according to the manufacturer’s instructions. Protein samples were diluted to the same concentration (4 μg/μL) with water and diluted again 1:1 using 2x Laemmli buffer. After that, samples were boiled for 5 min at 95 °C to denature proteins and centrifuged for 5 min at 16,000g; supernatants were used for Western blot analyses. Equal amounts of total protein (20 μg/lane) were separated by SDS-PAGE on an Any kD^TM gel (Bio-Rad ) and then transferred to a PVDF membrane. Before incubation with antibodies, non-specific binding sites on the membranes were blocked using 5% skimmed milk solution (1 h). TBS buffer with 0.05% Tween 20 was used for all washing steps. Membranes were incubated overnight at 4 °C with an anti-E-cadherin primary antibody (1/1000 dilution). An HRP-conjugated anti-rabbit antibody (1/2000 dilution, 1 h incubation) was used for chemiluminescent detection. Membranes were incubated with the detection substrate for 5 min and signal detection was performed using the ChemiDoc EZ imager and Image Lab software (Bio-Rad). […]

[2] = tested on: tumor nodules in the liver; assay: Orthotopic mouse model: histopathological evaluation of liver; assay type: in vivo, female athymic nude mice (Swiss nu/nu)
Procedure: Six-week-old female athymic nude mice (Swiss nu/nu) were anesthetized, and a minimally invasive midline laparotomy was performed to localize the cecum. The cecum was then gently pulled out, and luciferase-transfected HCT-8/E11 cells (1 × 10^6 cells) in 20 μL serum-free DMEM medium with Matrigel (1:1) were injected into the cecal wall. Before implantation, cells were treated with EntF* (10^2 nM), Phr0662 (10^2 nM), vehicle (PBS), or TGFα positive control (0.1 μg mL^−1) solutions for 5 days. The cecum was then carefully placed back into the abdominal cavity and the surgical incision was closed with two layers of sutures with PDS 6-0. […] Once a week, mice were examined for tumor growth and metastases using bioluminescent imaging with the IVIS Lumina II (Perkin Elmer, Belgium) after i.p. injection with 200 μL luciferin (150 mg kg^−1). After 6 weeks, mice were euthanized using cervical dislocation, and the liver, diaphragm, lungs, cecum, duodenum, and peritoneum were macroscopically examined for the presence of tumor nodules. Liver and lung tissues were then fixed in formalin for 24 h and stored in 70% ethanol for maximum 3 days before embedding in paraffin. Next, a hematoxylin and eosin (H&E) staining was performed on 8 μm sections, and 3 sections per mouse were visualized using microscopy. Slides from tumor-bearing mice were analyzed by two blinded, independent investigators using the scoring system described in Additional file 5: Table S3. In case of differences, slides were scored by a third blinded, independent investigator for consensus.

[3] = Serum kinetic profile and daily EntF* exposure after i.p. injection; assay type: in vivo, female Swiss nu/nu mice
Procedure: Fifty microliters of serum were mixed with 150 μL 0.5% formic acid in acetonitrile. After sonication for 5 min, samples were vortexed for 5 s, then heated for 30 s at 100 °C. The solution was vortexed and centrifuged for 20 min at 20,000g at 4 °C. The supernatant was purified using solid phase extraction (SPE) on HyperSep C18 plates (Thermo Fisher Scientific, Belgium), previously conditioned with acetonitrile and equilibrated with 75% acetonitrile in water, containing 0.375% formic acid. After loading 150 μL of each sample, 120 μL eluent were collected and organic solvents evaporated using nitrogen (1 L/min) for 5 min. The resulting samples were further diluted with 30 μL of BSA-based anti-adsorption solution, and analyzed by LC-MS.
EntF* was detected and quantified on a Waters Acquity® UPLC H-class system, connected to a Waters Xevo™ TQ-S triple quadrupole mass spectrometer with electrospray ionization (operated in positive ionization mode). Autosampler tray and column oven were kept at 10 ± 5 °C and 60 ± 5 °C, respectively. Chromatographic separation was achieved on a Waters Acquity® UPLC BEH Peptide C18 column (300 Å, 1.7 μm, 2.1 mm × 100 mm). The mobile phases consisted of 93/2/5 water/acetonitrile/DMSO (V/V/V) containing 0.1% formic acid (mobile phase A) and 2/93/5 water/acetonitrile/DMSO (V/V/V) containing 0.1% formic acid (mobile phase B), and the flow rate was set to 0.5 mL/min. A 10-μL aliquot from each sample was injected. The gradient program started with 80% of mobile phase A for 1 min, followed by a linear gradient to 40% of mobile phase A for 3.5 min. Gradient was then changed to 14.2% mobile phase A at 5 min, followed by a 1 min equilibration, before starting conditions were applied. EntF* retention time was between 4.25 and 4.45 min.
To calculate daily peptide exposure, female Swiss nu/nu mice (n = 14) were i.p. injected with 25 μL of 100 μM EntF*, their serum withdrawn at different time points and analyzed by LC1-MS1. A distribution and early exponential phase (α, 0-30 min), followed by a terminal elimination phase (β, 30–180 min) could be distinguished. The exposure was determined over a period of 24 h (x) as follows: ExposurenMxmin=∫030Ae^-αt+∫30xBe^-βt .

CC(C)C[C@@H]1NC(=O)[C@H](CO)NC(=O)[C@H](Cc2ccccc2)NC(=O)[C@H](C(C)C)NC(=O)[C@@H](NC(=O)[C@H](CCC(=O)O)NC(=O)[C@@H](NC(=O)[C@H](CC(C)C)NC(=O)[C@H](CC(N)=O)NC(=O)[C@@H](N)CO)C(C)C)CSSC[C@@H](C(=O)N[C@@H](CC(N)=O)C(=O)O)NC(=O)[C@H](CCCCN)NC(=O)[C@H](CCCCN)NC(=O)[C@H](Cc2ccccc2)NC1=O (single isomer, unassigned) [EntF*]
effect on E-cadherin expression in Caco-2 cells ([1]; 1 μM EntF* or CXCL12, 24 h, n = 6): statistically significant reduction | Relative E-cadherin in different cell lines, Average ([1]; CaCo-2 cells, average of n = 6): 40.1 | number of tumor nodules in the liver compared to the vehicle ([2]; 6 weeks of treatment, H&E histopathological score, n = 30 EntF*, n = 8 PBS): significantly higher number of tumor nodules | Histology scoring LIVER, conclusion per group ([2]; per group): 1 | Daily exposure during CRC experiment, Exposure (nM*min), Distribution phase ([3]; after 100 nmol kg-1 EntF* i.p. injection): 74.91 nM·min | Distribution phase, serum level, Average ([3]; after 100 nmol kg-1 EntF* i.p. injection, 5 min, mean of n = 4): 4.2292 | Distribution phase, serum level, Average ([3]; after 100 nmol kg-1 EntF* i.p. injection, 10 min, mean of n = 4): 2.596 | Distribution phase, serum level, Average ([3]; after 100 nmol kg-1 EntF* i.p. injection, 15 min, mean of n = 4): 2.427 | Elimination phase, serum level, Average ([3]; after 100 nmol kg-1 EntF* i.p. injection, 60 min, mean of n = 4): 0.2851 | Elimination phase, serum level, Average ([3]; after 100 nmol kg-1 EntF* i.p. injection, 120 min, mean of n = 4): 0.389 | level at time molar at 0.5 h ([3]; female, Swiss nu/nu, mouse, serum, ip, after 100 nmol kg-1 EntF* i.p. injection, 30 min, mean of n = 4, read-out: Distribution phase / Elimination phase, serum level, Average): 0.854 nM | level at time molar at 3 h ([3]; female, Swiss nu/nu, mouse, serum, ip, after 100 nmol kg-1 EntF* i.p. injection, 180 min, mean of n = 4, read-out: Elimination phase, serum level, Average): 0.195 nM | EntF* serum concentration ([3]; serum, 5 min after i.p. injection, Xgem (mean of 4 values)): 4.2292 nM | EntF* serum concentration ([3]; serum, 10 min after i.p. injection, Xgem (mean of 4 values)): 2.5962 nM | EntF* serum concentration ([3]; serum, 15 min after i.p. injection, Xgem (mean of 4 values)): 2.4271 nM | EntF* serum concentration ([3]; serum, 30 min after i.p. injection, Xgem (mean of 4 values)): 0.8544 nM | EntF* serum concentration ([3]; serum, 60 min after i.p. injection, Xgem (mean of 4 values)): 0.2851 nM | EntF* serum concentration ([3]; serum, 120 min after i.p. injection, Xgem (mean of 4 values)): 0.3890 nM | EntF* serum concentration ([3]; serum, 180 min after i.p. injection, replicate X1,2): 0.4699 nM | EntF* serum concentration ([3]; serum, 180 min after i.p. injection, replicate X2,2): 0.5336 nM
